In patent US9408863B2, “5′-substituted nucleoside analogs and methods of use thereof for the treatment of viral diseases” (Merck Sharp & Dohme Corp., priority 2011, dated 2016):

These compounds were tested on HCV replicon (1b) in replicon cells (assay: Cell-based HCV replicon assay (replicon RNA level by real time PCR, Taqman)). Details: Hepatitis C virus, 72 h, read-out: 1b EC50.
Protocol: To measure cell-based anti-HCV activity of selected compounds of the present invention, replicon cells were seeded at 5000 cells/well in 96-well collagen I-coated Nunc plates in the presence of the test compound. Various concentrations of test compound, typically in 10 serial 2-fold dilutions, were added to the assay mixture, with the starting concentration ranging from 250 μM to 1 μM. The final concentration of dimethylsulfoxide was 0.5%, fetal bovine serum was 5%, in the assay media. Cells were harvested on day 3 by the addition of 1× cell lysis buffer (Ambion cat #8721). The replicon RNA level was measured using real time PCR (Taqman assay). The amplicon was located in 5B. The PCR primers were: 5B.2F, ATGGACAGGCGCCCTGA (SEQ ID. NO. 1); 5B.2R, […] (SEQ ID. NO. 2); the probe sequence was FAM-labeled CACGCCATGCGCTGCGG (SEQ ID. NO. 3). GAPDH RNA was used as endogenous control and was amplified in the same reaction as NS5B (multiplex PCR) using primers and VIC-labeled probe recommended by the manufacturer (PE Applied Biosystem). The real-time RT-PCR reactions were run on ABI PRISM 7900HT Sequence Detection System using the following program: 48° C. for 30 minutes, 95° C. for 10 minutes, 40 cycles of 95° C. for 15 sec, 60° C. for 1 minute. The ACT values (CT5B-CTGAPDH) were plotted against the concentration of test compound and fitted to the sigmoid dose-response model using XLfit4 (MDL). EC50 was defined as the concentration of inhibitor necessary to achieve ΔCT=1 over the projected baseline; EC90 the concentration necessary to achieve ΔCT=3.2 over the baseline. Alternatively, to quantitate the absolute amount of replicon RNA, a standard curve was established by including serially diluted T7 transcripts of replicon RNA in the Taqman assay. All Taqman reagents were from PE Applied Biosystems. Such an assay procedure was described in detail in e.g. Malcolm et al., Antimicrobial Agents and Chemotherapy 50: 1013-1020 (2006).

Compared with `CCCCOC(=O)[C@H](C)NP(=O)(Oc1cccc2ccccc12)O[C@H](C)[C@H]1O[C@@H](n2ccc(N)nc2=O)[C@](C)(O)[C@@H]1O` (stereo partly shown) [Compound 2], `CCCCOC(=O)[C@H](C)NP(=O)(Oc1cccc2ccccc12)O[C@@H](C)[C@H]1O[C@@H](n2ccc(N)nc2=O)[C@](C)(O)[C@@H]1O` (stereo partly shown) [Compound 6] is higher in EC50: 10 µM for the first, over 100 µM for the second. The first is the more potent here.

`CCCCOC(=O)[C@H](C)NP(=O)(Oc1cccc2ccccc12)O[C@H](C)[C@H]1O[C@@H](n2ccc(=O)[nH]c2=O)[C@](C)(O)[C@@H]1O` (stereo partly shown) [Compound 4] and `CCCCOC(=O)[C@H](C)NP(=O)(Oc1cccc2ccccc12)O[C@H](C)[C@H]1O[C@@H](n2cnc3c(=O)[nH]c(N)nc32)[C@](C)(O)[C@@H]1O` (stereo partly shown) [Compound 10] cannot be ordered by EC50: over 100 µM for the first, over 100 µM for the second.

Same assay, conditions: Hepatitis C virus, 72 h; HCV 1b replicon cells, harvested on day 3; EC50 = concentration to achieve ΔCT=1 over projected baseline; read-out: 1b EC50

`C[C@H](O)[C@H]1O[C@@H](n2cnc3c(=O)[nH]c(N)nc32)[C@](C)(O)[C@@H]1O` [Compound 11] and `C[C@@H](O)[C@H]1O[C@@H](n2cnc3c(=O)[nH]c(N)nc32)[C@](C)(O)[C@@H]1O` [Compound 9] cannot be ordered by EC50: over 100 µM for the first, over 100 µM for the second.

Going from `CC(O)[C@H]1O[C@@H](n2cnc3c(OCc4ccccc4)nc(NC(=O)c4ccccc4)nc32)[C@](C)(F)[C@@H]1O` (stereo partly shown) [Compound 12] to `CC(O)[C@H]1O[C@@H](n2ccc(NC(=O)c3ccccc3)nc2=O)[C@](C)(F)[C@@H]1O` (stereo partly shown) [Compound 7], the EC50 rises from 14 µM to over 100 µM. The first is the more potent here.

Going from `CC(O)[C@H]1O[C@@H](n2ccc(N)nc2=O)[C@](C)(F)[C@@H]1O` (stereo partly shown) [Compound 8] to `C[C@H](O)[C@H]1O[C@@H](n2ccc(N)nc2=O)[C@](C)(O)[C@@H]1O` [Compound 5], the EC50 rises from 38 µM to over 100 µM.

`C[C@@H](O)[C@H]1O[C@@H](n2ccc(=O)[nH]c2=O)[C@](C)(O)[C@@H]1O` [Compound 3] and `C[C@@H](O)[C@H]1O[C@@H](n2ccc(N)nc2=O)[C@](C)(O)[C@@H]1O` [Compound 1] cannot be ordered by EC50: over 100 µM for the first, over 100 µM for the second.

Compound `CC(O)[C@H]1O[C@@H](n2cnc3c(=O)[nH]c(N)nc32)[C@](C)(F)[C@@H]1O` (stereo partly shown) [Compound 13] has an EC50 of 3.5 µM.
